In ChEMBL document CHEMBL1201862, “PubChem BioAssay data set” (2004):
The source made the active and inactive calls.

Legend:
[1] = cytotoxicity in KRAS-transformed pancreatic duct cells, primary screen, cell-based, fluorescence, HTS (AID 431); format: functional; conditions: Homo sapiens;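 also: cell line used: HPDE-C7K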
[2] = cytotoxicity in HPDE-C7 cells, cell-based, fluorescence, HTS (AID 430); format: functional; conditions: Homo sapiens
[3] = target: Sphingosine 1-phosphate receptor 2 (Homo sapiens, UniProt O95136); experiment: Dose Response Cell Based Assay for Agonists of the S1P2 Receptor of Purchased Analogues. [Related pubchem assays: 729, 843, 854, 736 ]; format: functional
Sphingosine 1-phosphate receptor 2, sequence (O95136 whole entry): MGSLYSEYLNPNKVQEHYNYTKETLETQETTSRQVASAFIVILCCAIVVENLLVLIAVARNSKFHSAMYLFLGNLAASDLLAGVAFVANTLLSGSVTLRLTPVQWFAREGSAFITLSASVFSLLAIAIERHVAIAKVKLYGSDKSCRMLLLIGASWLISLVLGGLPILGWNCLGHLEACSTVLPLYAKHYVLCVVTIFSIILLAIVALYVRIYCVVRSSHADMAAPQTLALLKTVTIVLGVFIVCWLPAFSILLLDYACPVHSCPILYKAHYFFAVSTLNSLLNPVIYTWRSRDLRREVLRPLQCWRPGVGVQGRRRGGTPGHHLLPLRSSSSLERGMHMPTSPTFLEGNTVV

[4] = target: T1, Neuropeptides B/W receptor type 1 (Homo sapiens, UniProt P48145); experiment: Fluorescence-based dose response cell-based high throughput screening assay to identify antagonists of the G-protein coupled receptor 7 (GPR7). [Related pubchem assays: 1952 (Screening assay (GPR7 antagonists).), 1880 (Summary AID.)]; format: functional
T1 sequence (P48145 whole entry): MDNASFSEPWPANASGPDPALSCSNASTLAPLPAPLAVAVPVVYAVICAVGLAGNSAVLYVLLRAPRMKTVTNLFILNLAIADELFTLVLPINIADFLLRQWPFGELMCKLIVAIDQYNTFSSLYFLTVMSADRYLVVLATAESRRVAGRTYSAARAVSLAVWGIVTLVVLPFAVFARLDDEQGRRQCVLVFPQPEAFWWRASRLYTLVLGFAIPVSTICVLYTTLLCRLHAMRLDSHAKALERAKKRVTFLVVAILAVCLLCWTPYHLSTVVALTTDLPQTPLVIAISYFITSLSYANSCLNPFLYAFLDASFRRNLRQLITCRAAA

[5] = target: Melanin-concentrating hormone receptor 1 (Homo sapiens, UniProt Q99705); experiment: Fluorescence-based counterscreen for antagonists of the G-protein coupled receptor 7 (GPR7): cell-based high throughput dose response assay to identify antagonists of the melanin-concentrating hormone receptor 1 (MCHR1).; format: functional
Melanin-concentrating hormone receptor 1, sequence (Q99705 whole entry): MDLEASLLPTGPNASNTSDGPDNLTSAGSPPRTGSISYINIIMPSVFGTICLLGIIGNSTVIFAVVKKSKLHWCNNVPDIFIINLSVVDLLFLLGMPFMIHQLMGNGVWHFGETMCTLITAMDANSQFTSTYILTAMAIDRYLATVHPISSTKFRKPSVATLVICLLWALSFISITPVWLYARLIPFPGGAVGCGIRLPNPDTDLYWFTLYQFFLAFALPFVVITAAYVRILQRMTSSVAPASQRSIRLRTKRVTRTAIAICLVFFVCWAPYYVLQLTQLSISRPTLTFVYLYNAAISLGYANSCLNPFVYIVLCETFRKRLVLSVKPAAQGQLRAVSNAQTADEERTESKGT

Insulin-degrading enzyme = target: T2, Insulin-degrading enzyme (Homo sapiens, UniProt P14735); experiment: Dose Response: Fluorescence polarization-based cell-based high throughput dose response assay for inhibitors of insulin-degrading enzyme (IDE). [Related pubchem assays: 434962 (Primary screen (IDE inhibitors in singlicate)), 449730 (Counterscreen (Cytotoxicity in triplicate)), 435028 (Confirmation (IDE inhibitors in triplicate)), 434984 (Summary …; format: functional
T2 sequence (P14735 whole entry): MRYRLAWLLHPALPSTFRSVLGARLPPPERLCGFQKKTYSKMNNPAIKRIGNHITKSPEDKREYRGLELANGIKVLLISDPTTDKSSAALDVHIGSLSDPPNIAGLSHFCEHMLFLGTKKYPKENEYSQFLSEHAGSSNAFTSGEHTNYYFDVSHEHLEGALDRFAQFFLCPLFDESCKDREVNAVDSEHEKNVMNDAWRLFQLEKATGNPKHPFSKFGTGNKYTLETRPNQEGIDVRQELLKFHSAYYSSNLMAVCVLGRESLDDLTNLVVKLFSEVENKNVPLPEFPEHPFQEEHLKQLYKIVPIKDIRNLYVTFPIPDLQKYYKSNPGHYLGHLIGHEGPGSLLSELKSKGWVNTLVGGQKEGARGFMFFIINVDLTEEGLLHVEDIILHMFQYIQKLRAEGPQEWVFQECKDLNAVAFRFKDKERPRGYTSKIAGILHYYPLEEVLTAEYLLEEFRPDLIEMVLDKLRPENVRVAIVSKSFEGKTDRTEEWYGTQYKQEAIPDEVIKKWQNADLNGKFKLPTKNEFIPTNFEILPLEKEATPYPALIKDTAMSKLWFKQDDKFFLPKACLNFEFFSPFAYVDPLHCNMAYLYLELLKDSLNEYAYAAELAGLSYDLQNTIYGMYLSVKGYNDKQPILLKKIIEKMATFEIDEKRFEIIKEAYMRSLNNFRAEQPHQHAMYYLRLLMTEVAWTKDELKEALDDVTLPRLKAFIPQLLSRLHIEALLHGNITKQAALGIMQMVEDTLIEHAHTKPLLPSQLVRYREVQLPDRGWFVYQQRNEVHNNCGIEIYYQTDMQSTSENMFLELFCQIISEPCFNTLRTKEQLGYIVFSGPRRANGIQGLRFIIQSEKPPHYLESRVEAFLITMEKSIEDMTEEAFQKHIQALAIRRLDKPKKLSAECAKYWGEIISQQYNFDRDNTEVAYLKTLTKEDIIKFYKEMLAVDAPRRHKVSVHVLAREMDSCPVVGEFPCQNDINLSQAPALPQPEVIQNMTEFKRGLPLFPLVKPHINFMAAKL

[6] = Counterscreen for IDE inhibitors: Luminescence-based cell-based high throughput dose response assay to identify compounds that are cytotoxic to HEK cells. [Related pubchem assays: 434962 (Primary screen (IDE inhibitors in singlicate)), 449730 (Counterscreen (Cytotoxicity in triplicate)), 435028 (Confirmation (IDE inhibitors in triplicate)) …; format: functional; conditions: HEK293
[7] = growth suppression of beta-catenin-knockout colon cells, dose response, cell-based, HCT116, human colon tumor (AID 1045); format: functional;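 also: HCT116 colon tumor cells with beta catenin knocked out; cells exposed to compound for 60 hours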
[8] = growth suppression of PTEN-null colon cells, dose response, cell-based, HCT116 PTEN knockout (AID 1047); format: functional;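 also: HCT116 colon tumor cells with PTEN knocked out; cells exposed to compound for 60 hours before readout; potency for loss of cell viability measured by luminescence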
[9] = NIH-3T3 fibroblast cytotoxicity, dose response, cytotoxicity control, cell-based, fluorescence, Alamar Blue, secondary assay (AID 2327); format: functional;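 also: NIH-3T3 mouse fibroblasts cultured with fluconazole at 8 µg/mL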
[10] = C. albicans growth with fluconazole, confirmation, fluorescence, retest (AID 2467); format: functional, cell-based
Protein skinhead-1 = target: T3, Protein skinhead-1 (Caenorhabditis elegans, UniProt P34707); format: functional
T3 sequence (P34707 whole entry): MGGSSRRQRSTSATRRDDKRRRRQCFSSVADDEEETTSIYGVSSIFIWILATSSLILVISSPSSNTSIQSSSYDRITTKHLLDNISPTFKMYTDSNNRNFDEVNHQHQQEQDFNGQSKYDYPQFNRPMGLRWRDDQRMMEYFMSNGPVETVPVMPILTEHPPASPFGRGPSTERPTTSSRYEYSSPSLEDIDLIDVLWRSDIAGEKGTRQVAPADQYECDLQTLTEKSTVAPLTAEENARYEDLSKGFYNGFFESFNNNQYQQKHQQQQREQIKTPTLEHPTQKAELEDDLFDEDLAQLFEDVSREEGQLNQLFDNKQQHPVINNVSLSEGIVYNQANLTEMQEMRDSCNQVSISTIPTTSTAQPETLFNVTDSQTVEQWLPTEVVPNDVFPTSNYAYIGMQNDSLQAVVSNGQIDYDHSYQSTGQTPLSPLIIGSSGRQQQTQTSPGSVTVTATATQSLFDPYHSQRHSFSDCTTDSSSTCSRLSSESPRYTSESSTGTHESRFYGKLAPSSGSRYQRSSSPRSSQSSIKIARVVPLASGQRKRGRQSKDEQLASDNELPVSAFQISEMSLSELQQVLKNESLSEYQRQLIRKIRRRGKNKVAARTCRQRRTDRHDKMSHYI

Bcl-2-related protein A1 [11] = target: T4, Bcl-2-related protein A1 (Mus musculus, UniProt Q07440); experiment: Bfl-1 binding inhibitors, SAR follow-up, biochemical, fluorescence polarization (AID 1070)
T4 sequence (Q07440 whole entry): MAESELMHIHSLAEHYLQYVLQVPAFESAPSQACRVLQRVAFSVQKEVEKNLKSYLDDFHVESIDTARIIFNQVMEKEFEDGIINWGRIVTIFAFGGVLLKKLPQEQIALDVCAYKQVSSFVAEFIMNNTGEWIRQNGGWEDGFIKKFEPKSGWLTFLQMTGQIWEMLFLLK

[12] = target: Glyceraldehyde-3-phosphate dehydrogenase (Homo sapiens, UniProt P04406)
Glyceraldehyde-3-phosphate dehydrogenase, sequence (P04406 whole entry): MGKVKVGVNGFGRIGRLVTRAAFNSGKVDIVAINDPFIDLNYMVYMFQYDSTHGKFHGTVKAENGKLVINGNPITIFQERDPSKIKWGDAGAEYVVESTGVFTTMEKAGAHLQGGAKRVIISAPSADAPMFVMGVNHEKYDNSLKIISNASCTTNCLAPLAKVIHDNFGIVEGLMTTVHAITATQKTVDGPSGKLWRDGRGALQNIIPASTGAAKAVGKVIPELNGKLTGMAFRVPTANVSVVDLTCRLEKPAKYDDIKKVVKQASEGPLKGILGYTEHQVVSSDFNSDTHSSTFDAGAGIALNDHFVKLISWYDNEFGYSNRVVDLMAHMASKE

Bcl-2-related protein A1 [13] = target: T4, Bcl-2-related protein A1; experiment: Bfl-1 inhibitors blocking BH3 peptide binding, confirmation, biochemical, TR-FRET, mouse Bfl-1 (AID 621);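 also: TR-FRET binding of GST-Bfl-1 to FITC-labelled Bid peptide via terbium antibody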
Cytochrome P450 2D6 = Cytochrome P450 2D6 (Homo sapiens, UniProt P10635); experiment: qHTS Assay for Inhibitors and Substrates of Cytochrome P450 2D6. [Related pubchem assays: 410 ]; format: ADME; conditions: read-out: Potency
Cytochrome P450 2D6, sequence (P10635 whole entry): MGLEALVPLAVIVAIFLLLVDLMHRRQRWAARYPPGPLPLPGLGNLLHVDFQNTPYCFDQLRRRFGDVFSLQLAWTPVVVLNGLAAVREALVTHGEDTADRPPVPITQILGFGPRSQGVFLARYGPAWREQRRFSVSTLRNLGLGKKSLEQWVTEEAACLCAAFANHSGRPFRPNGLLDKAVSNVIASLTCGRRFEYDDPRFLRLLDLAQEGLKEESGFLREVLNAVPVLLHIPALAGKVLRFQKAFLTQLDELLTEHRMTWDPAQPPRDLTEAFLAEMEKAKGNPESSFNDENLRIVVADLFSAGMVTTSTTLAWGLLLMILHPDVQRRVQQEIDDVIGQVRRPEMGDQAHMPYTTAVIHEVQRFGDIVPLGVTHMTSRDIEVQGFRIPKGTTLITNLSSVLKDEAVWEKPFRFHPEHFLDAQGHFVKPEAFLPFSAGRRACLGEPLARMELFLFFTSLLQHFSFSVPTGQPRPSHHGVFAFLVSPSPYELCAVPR

In the case of `Cc1ccc(C(=O)OCC(=O)Nc2sc3c(c2C#N)CCCCC3)cc1NC(=O)c1ccco1`, the EC50 [1] is reported as > 20 µM (not active) and the EC50 [2] is reported as > 20 µM (not active).

In the case of `Cc1cc(C(=O)CSc2nnc(C3CC3)n2C)c(C)n1Cc1ccccc1`, the EC50 [3] is reported as > 30 µM (not active).

For `N=c1c(C(=O)NC2CCCCC2)cc2c(=O)n3ccccc3nc2n1CC1CCCO1` (stereo unspecified), the IC50 [4] was > 43.8 µM (not active) and the IC50 [5] was > 43.8 µM (not active).

For `O=C1NC(=S)N(C(=O)c2ccc(F)cc2)/C1=C/c1ccccc1`, the IC50 (Insulin-degrading enzyme) was 22.2 µM (not active), the IC50 [6] was 22.4 µM (not active) and the EC50 [7] was 54.1 µM (active). For the same molecule, the EC50 [8] was 40.8 µM (active).

In the case of `Cc1cc(C(=O)CN2C(=O)NC3(CCOc4ccccc43)C2=O)c(C)n1Cc1ccccc1` (stereo unspecified), the EC50 [3] is reported as > 30 µM (not active).

In the case of `S=C(Nc1ccccc1)Nc1nc2ccccc2n1CCOc1ccccc1`, the IC50 (Insulin-degrading enzyme) is reported as > 55.9 µM (not active), the IC50 [6] is reported as 15.9 µM (not active) and the EC50 [7] is reported as 15.9 µM (active). The EC50 [8] was 17.4 µM (active), the EC50 [9] was 8.47 µM (inconclusive) and the EC50 [10] was 2.08 µM (active). The IC50 (Protein skinhead-1) was > 100 µM (inactive).

With `O=C1C(Cl)=C(Cl)C(=O)N1c1ccc(Cl)cc1Cl` the IC50 (Bcl-2-related protein A1 [11]) was 1.64 µM (active), the IC50 [12] was > 100 µM (not active) and the IC50 (Bcl-2-related protein A1 [13]) was 0.74 µM (active).

With `Cc1nc(/N=N\c2cc(S(=O)(=O)O)c3cc([N+](=O)[O-])cc(S(=O)(=O)O)c3c2)c(COP(=O)(O)O)c(C=O)c1O` the AC50 (Cytochrome P450 2D6) was 20 µM (inconclusive).
